{"source": "patent US8952157B2", "about": "“Apoptosis-inducing agents for the treatment of cancer and immune and autoimmune diseases” (AbbVie Inc., priority 2008, dated 2015)"}
{"target": "GST-Bcl-2 (Homo sapiens (Human), UniProt P10415)", "sequence (P10415 whole entry)": "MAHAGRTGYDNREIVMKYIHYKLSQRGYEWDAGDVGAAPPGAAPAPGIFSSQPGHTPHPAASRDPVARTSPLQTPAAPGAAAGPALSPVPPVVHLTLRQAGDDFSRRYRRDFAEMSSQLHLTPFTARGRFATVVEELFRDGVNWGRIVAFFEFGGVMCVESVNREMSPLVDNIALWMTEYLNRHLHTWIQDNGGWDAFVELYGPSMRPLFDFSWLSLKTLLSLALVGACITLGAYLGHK", "assay": "Time Resolved-Fluorescence Resonance Energy Transfer (TR-FRET) Bcl-2 binding assay", "conditions": "GST-Bcl-2 1 nM, F-Bak peptide probe 100 nM, Tb-anti-GST antibody 1 nM; Ki by Wang's equation", "how_it_was_run": "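Competition TR-FRET: GST-Bcl-2 with fluorescent Bak peptide probe and Tb-anti-GST antibody, compounds serially diluted from 50 μM (2× start, 10% DMSO).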", "units": {"Ki": "nM"}}
{"smiles": "CC1(C)CCC(CN2CCN(c3ccc(C(=O)NS(=O)(=O)c4cnc(OCC5CCOCC5)c(C#N)c4)c(Oc4cc5cc[nH]c5cc4F)c3)CC2)=C(c2ccc(Cl)cc2)C1", "note": "[Example 301, 4-(4-{[2-(4-chlorophenyl)-4,4-dimethylcyclohex-1-en-1-yl]methyl}piperazin-1-yl)-N-{[5-cyano-6-(tetrahydro-2H-pyran-4-ylmethoxy)pyridin-3-yl]sulfonyl}-2-[(6-fluoro-1H-indol-5-yl)oxy]benzamide]", "Ki": 0.113}
{"smiles": "CC1(C)CCC(CN2CCN(c3ccc(C(=O)NS(=O)(=O)c4ccc(OCC5(F)CCOCC5)c(Cl)c4)c(Oc4cnc(N)c(Cl)c4)c3)CC2)=C(c2ccc(Cl)cc2)C1", "note": "[Example 404, 2-[(6-amino-5-chloropyridin-3-yl)oxy]-N-({3-chloro-4-[(4-fluorotetrahydro-2H-pyran-4-yl)methoxy]phenyl}sulfonyl)-4-(4-{[2-(4-chlorophenyl)-4,4-dimethylcyclohex-1-en-1-yl]methyl}piperazin-1-yl)benzamide]", "Ki": 0.069}
{"smiles": "CC1(C)CCC(CN2CCN(c3ccc(C(=O)NS(=O)(=O)c4ccc(OCC5CCOCC5)c([N+](=O)[O-])c4)c(Oc4cnc(N)c(Cl)c4)c3)CC2)=C(c2ccc(Cl)cc2)C1", "note": "[Example 381, 2-[(6-amino-5-chloropyridin-3-yl)oxy]-4-(4-{[2-(4-chlorophenyl)-4,4-dimethylcyclohex-1-en-1-yl]methyl}piperazin-1-yl)-N-{[3-nitro-4-(tetrahydro-2H-pyran-4-ylmethoxy)phenyl]sulfonyl}benzamide]", "Ki": 0.02}
{"smiles": "CC1(C)CCC(CN2CCN(c3ccc(C(=O)NS(=O)(=O)c4ccc(N[C@@H]5CCCN(C(CF)CF)C5)c([N+](=O)[O-])c4)c(Oc4cnc(N)c(Cl)c4)c3)CC2)=C(c2ccc(Cl)cc2)C1", "note": "[Example 382, 2-[(6-amino-5-chloropyridin-3-yl)oxy]-4-(4-{[2-(4-chlorophenyl)-4,4-dimethylcyclohex-1-en-1-yl]methyl}piperazin-1-yl)-N-{[4-({(3R)-1-[2-fluoro-1-(fluoromethyl)ethyl]piperidin-3-yl}amino)-3-nitrophenyl]sulfonyl}benzamide]", "Ki": 0.114}
{"smiles": "Cc1c(O)cccc1Oc1cc(N2CCN(CC3=C(c4ccc(Cl)cc4)CC(C)(C)CC3)CC2)ccc1C(=O)NS(=O)(=O)c1ccc(NC2CCN(C)CC2)c([N+](=O)[O-])c1", "note": "[Example 159]", "Ki": 0.526}
{"smiles": "O=C(NS(=O)(=O)c1ccc(NCC2CCOCC2)cc1)c1ccc(N2CCN(Cc3ccccc3-c3ccc(Cl)cc3)CC2)cc1Oc1cccc([N+](=O)[O-])c1", "note": "[Example 77, 4-(4-((4′-chloro-1,1′-biphenyl-2-yl)methyl)piperazin-1-yl)-2-(3-nitrophenoxy)-N-((4-((tetrahydro-2H-pyran-4-ylmethyl)amino)phenyl)sulfonyl)benzamide]", "Ki": 451}
{"smiles": "O=C(NS(=O)(=O)c1ccc(NCC2CCOCC2)c([N+](=O)[O-])c1)c1ccc(N2CCN(Cc3ccccc3-c3ccc(Cl)cc3)CC2)cc1Oc1cccc(N2CCOCC2)c1", "note": "[Example 89, 4-(4-((4′-chloro-1,1′-biphenyl-2-yl)methyl)piperazin-1-yl)-2-(3-morpholin-4-ylphenoxy)-N-((3-nitro-4-((tetrahydro-2H-pyran-4-ylmethyl)amino)phenyl)sulfonyl)benzamide]", "Ki": 6.11}
{"smiles": "CC1(C)CCC(CN2CCN(c3ccc(C(=O)NS(=O)(=O)c4ccc(NC5CCN(C6CCCC6)CC5)c([N+](=O)[O-])c4)c(Oc4cccc(Cl)c4)c3)CC2)=C(c2ccc(Cl)cc2)C1", "note": "[Example 130, 2-(3-chlorophenoxy)-4-(4-{[2-(4-chlorophenyl)-4,4-dimethylcyclohex-1-en-1-yl]methyl}piperazin-1-yl)-N-({4-[(1-cyclopentylpiperidin-4-yl)amino]-3-nitrophenyl}sulfonyl)benzamide]", "Ki": 0.067}
{"smiles": "CC1(C)CCC(CN2CCN(c3ccc(C(=O)NS(=O)(=O)c4ccc(NCC5CCOC5)c([N+](=O)[O-])c4)c(Oc4cc5cc[nH]c5cc4F)c3)CC2)=C(c2ccc(Cl)cc2)C1", "note": "(centres unmarked) [Example 332, 4-(4-{[2-(4-chlorophenyl)-4,4-dimethylcyclohex-1-en-1-yl]methyl}piperazin-1-yl)-2-[(6-fluoro-1H-indol-5-yl)oxy]-N-({3-nitro-4-[(tetrahydrofuran-3-ylmethyl)amino]phenyl}sulfonyl)benzamide]", "Ki": 0.034}
{"smiles": "CC1(C)CCC(CN2CCN(c3ccc(C(=O)NS(=O)(=O)c4ccc(NCC5CCOCC5)c([N+](=O)[O-])c4)c(Oc4cncc(Br)c4)c3)CC2)=C(c2ccc(Cl)cc2)C1", "note": "[Example 274, 2-[(5-bromopyridin-3-yl)oxy]-4-(4-{[2-(4-chlorophenyl)-4,4-dimethylcyclohex-1-en-1-yl]methyl}piperazin-1-yl)-N-({3-nitro-4-[(tetrahydro-2H-pyran-4-ylmethyl)amino]phenyl}sulfonyl)benzamide]", "Ki": 0.936}
{"smiles": "CNc1ncc(Oc2cc(N3CCN(CC4=C(c5ccc(Cl)cc5)CC(C)(C)CC4)CC3)ccc2C(=O)NS(=O)(=O)c2ccc(NCC3CCOCC3)c([N+](=O)[O-])c2)cc1Cl", "note": "[Example 377, 2-{[5-chloro-6-(methylamino)pyridin-3-yl]oxy}-4-(4-{[2-(4-chlorophenyl)-4,4-dimethylcyclohex-1-en-1-yl]methyl}piperazin-1-yl)-N-({3-nitro-4-[(tetrahydro-2H-pyran-4-ylmethyl)amino]phenyl}sulfonyl)benzamide]", "Ki": 2.32}
{"smiles": "CC1(C)CCC(CN2CCN(c3ccc(C(=O)NS(=O)(=O)c4ccc(NCC5(F)CCOCC5)c([N+](=O)[O-])c4)c(Oc4cnc(N)c(Cl)c4)c3)CC2)=C(c2ccc(Cl)cc2)C1", "note": "[Example 363, 2-[(6-amino-5-chloropyridin-3-yl)oxy]-4-(4-{[2-(4-chlorophenyl)-4,4-dimethylcyclohex-1-en-1-yl]methyl}piperazin-1-yl)-N-[(4-{[(4-fluorotetrahydro-2H-pyran-4-yl)methyl]amino}-3-nitrophenyl)sulfonyl]benzamide]", "Ki": "< 0.01"}
{"smiles": "O=C(NS(=O)(=O)c1ccc(NCC2CCOCC2)c([N+](=O)[O-])c1)c1ccc(N2CCN(Cc3ccccc3-c3ccc(Cl)cc3)CC2)cc1Oc1ccccc1-c1ccccc1", "note": "[Example 84, 2-(1,1′-biphenyl-2-yloxy)-4-(4-((4′-chloro-1,1′-biphenyl-2-yl)methyl)piperazin-1-yl)-N-((3-nitro-4-((tetrahydro-2H-pyran-4-ylmethyl)amino)phenyl)sulfonyl)benzamide]", "Ki": 13.7}
{"smiles": "CC1(C)CCC(CN2CCN(c3ccc(C(=O)NS(=O)(=O)c4ccc(NC5CCN(C6CCOCC6)CC5)c([N+](=O)[O-])c4)c(Oc4cccc(F)c4F)c3)CC2)=C(c2ccc(Cl)cc2)C1", "note": "[Example 49, 4-(4-((2-(4-chlorophenyl)-4,4-dimethylcyclohex-1-en-1-yl)methyl)piperazin-1-yl)-2-(2,3-difluorophenoxy)-N-((3-nitro-4-((1-tetrahydro-2H-pyran-4-ylpiperidin-4-yl)amino)phenyl)sulfonyl)benzamide]", "Ki": 0.062}
{"smiles": "CN(C)C(=O)Cc1ccccc1Oc1cc(N2CCN(Cc3ccccc3-c3ccc(Cl)cc3)CC2)ccc1C(=O)NS(=O)(=O)c1ccc(NCC2CCOCC2)c([N+](=O)[O-])c1", "note": "[Example 27, 4-(4-((4′-chloro-1,1′-biphenyl-2-yl)methyl)piperazin-1-yl)-2-(2-(2-(dimethylamino)-2-oxoethyl)phenoxy)-N-((3-nitro-4-((tetrahydro-2H-pyran-4-ylmethyl)amino)phenyl)sulfonyl)benzamide]", "Ki": 2.21}
{"smiles": "COCCNc1ccc(S(=O)(=O)NC(=O)c2ccc(N3CCN(CC4=C(c5ccc(Cl)cc5)CC(C)(C)CC4)CC3)cc2Oc2cc3cc[nH]c3cc2F)cc1[N+](=O)[O-]", "note": "[Example 263, 4-(4-{[2-(4-chlorophenyl)-4,4-dimethylcyclohex-1-en-1-yl]methyl}piperazin-1-yl)-2-[(6-fluoro-1H-indol-5-yl)oxy]-N-({4-[(2-methoxyethyl)amino]-3-nitrophenyl}sulfonyl)benzamide]", "Ki": 0.11}
{"smiles": "CN1CCC(Nc2ccc(S(=O)(=O)NC(=O)c3ccc(N4CCN(CC5=C(c6ccc(Cl)cc6)CC(C)(C)OC5)CC4)cc3Oc3cccc(F)c3F)cc2[N+](=O)[O-])CC1", "note": "[Example 145, 4-(4-{[4-(4-chlorophenyl)-6,6-dimethyl-5,6-dihydro-2H-pyran-3-yl]methyl}piperazin-1-yl)-2-(2,3-difluorophenoxy)-N-({4-[(1-methylpiperidin-4-yl)amino]-3-nitrophenyl}sulfonyl)benzamide]", "Ki": 0.057}
{"smiles": "CN1CCC(Nc2ccc(S(=O)(=O)NC(=O)c3ccc(N4CCN(CC5=C(c6ccc(Cl)cc6)CC(C)(C)CC5)CC4)cc3OCc3csc(NC(=O)OC(C)(C)C)n3)cc2[N+](=O)[O-])CC1", "note": "[Example 222, tert-butyl 4-[(5-(4-{[2-(4-chlorophenyl)-4,4-dimethylcyclohex-1-en-1-yl]methyl}piperazin-1-yl)-2-{[({4-[(1-methylpiperidin-4-yl)amino]-3-nitrophenyl}sulfonyl)amino]carbonyl}phenoxy)methyl]-1,3-thiazol-2-ylcarbamate]", "Ki": "> 1200"}
{"smiles": "CC1(C)CCC(CN2CCN(c3ccc(C(=O)NS(=O)(=O)c4ccc(NCC5CCOCC5)c([N+](=O)[O-])c4)c(Oc4cnc5[nH]ccc5c4Cl)c3)CC2)=C(c2ccc(Cl)cc2)C1", "note": "[Example 384, 4-(4-{[2-(4-chlorophenyl)-4,4-dimethylcyclohex-1-en-1-yl]methyl}piperazin-1-yl)-2-[(4-chloro-1H-pyrrolo[2,3-b]pyridin-5-yl)oxy]-N-({3-nitro-4-[(tetrahydro-2H-pyran-4-ylmethyl)amino]phenyl}sulfonyl)benzamide]", "Ki": 6.23}
{"smiles": "CC1(C)CCC(CN2CCN(c3ccc(C(=O)NS(=O)(=O)c4ccc(NCC5CCOCC5)c([N+](=O)[O-])c4)c(Oc4ccc(N)nc4)c3)CC2)=C(c2ccc(Cl)cc2)C1", "note": "[Example 272, 2-[(6-aminopyridin-3-yl)oxy]-4-(4-{[2-(4-chlorophenyl)-4,4-dimethylcyclohex-1-en-1-yl]methyl}piperazin-1-yl)-N-({3-nitro-4-[(tetrahydro-2H-pyran-4-ylmethyl)amino]phenyl}sulfonyl)benzamide]", "Ki": 1.24}
